Measured values as given in US5741819A, “Arylsulfonylaminobenzene derivatives and the use thereof as factor Xa inhibitors” (3-Dimensional Pharmaceuticals, Inc., priority 1995, dated 1998).
Where two headings read alike, the source gives them in different places.

Key:
Type in all cases: biochemical
human plasmin = human plasmin (Homo sapiens, UniProt P00747); experiment: In vitro inhibition of purified plasmin (hydrolysis of Tos-Gly-Pro-Lys-pNa); conditions: for inhibition at 60 µM: at 60 μM inhibitor
Chain of human plasmin (P00747 581-810 limits assumed): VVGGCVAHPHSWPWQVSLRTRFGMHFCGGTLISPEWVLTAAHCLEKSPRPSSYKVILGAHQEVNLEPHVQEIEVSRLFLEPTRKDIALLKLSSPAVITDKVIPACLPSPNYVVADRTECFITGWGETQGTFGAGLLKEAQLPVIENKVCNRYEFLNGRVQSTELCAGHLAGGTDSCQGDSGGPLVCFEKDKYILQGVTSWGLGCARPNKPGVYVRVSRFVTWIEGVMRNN
Chain of human plasmin (P00747 97-580 partner limits assumed): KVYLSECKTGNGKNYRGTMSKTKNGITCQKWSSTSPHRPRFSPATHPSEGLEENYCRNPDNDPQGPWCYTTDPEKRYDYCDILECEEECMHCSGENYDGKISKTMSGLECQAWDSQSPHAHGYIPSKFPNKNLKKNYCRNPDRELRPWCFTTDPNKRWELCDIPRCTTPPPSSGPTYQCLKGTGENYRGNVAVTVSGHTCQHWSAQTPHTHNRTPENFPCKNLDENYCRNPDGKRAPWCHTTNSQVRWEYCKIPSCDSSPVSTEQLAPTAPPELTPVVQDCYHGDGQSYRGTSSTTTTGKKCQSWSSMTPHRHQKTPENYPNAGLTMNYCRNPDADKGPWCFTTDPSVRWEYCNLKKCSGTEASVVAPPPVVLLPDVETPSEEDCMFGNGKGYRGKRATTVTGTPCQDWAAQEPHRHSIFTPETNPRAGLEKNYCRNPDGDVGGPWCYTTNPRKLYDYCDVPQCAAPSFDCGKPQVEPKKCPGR
Protocol: (§1) The ability of the compounds of the present invention to act as inhibitors of thrombin, factor Xa and plasmin catalytic activity was assessed by determining the concentration that inhibited enzyme activity by 50% using purified human enzymes. The concentration of added inhibitor that caused a 50% decrease in the initial rate of hydrolysis was defined as the IC50 value.
(§2) All assays are based on the ability of the test compound to inhibit the hydrolysis of a peptide p-nitroanilide substrate. In a typical experiment, appropriate substrate is prepared in DMSO, and diluted into an assay buffer consisting of 50 mM HEPES and 130 mM NaCl at a pH of 7.5. The final concentration for each of the substrates is listed below. All substrate concentrations are at least 10 fold lower than Km to insure inhibition is competitive. Test compounds are prepared as 1 mg/mL solutions in DMSO, and three additional 10-fold dilutions in DMSO are prepared. Enzyme solutions are prepared at the concentrations listed below in assay buffer.
(§3) In a typical IC50 determination, into each well of a 96 well plate is pipetted 280 μL of substrate solution, 10 μL of inhibitor solution, and the plate is allowed to thermally equilibrate at 37° C. in a Molecular Devices Plate Reader for at least 10 minutes. Reactions are initiated by the addition of a 20 μL aliquot of enzyme, and the absorbance increase at 405 nm is recorded for 15 minutes. Data corresponding to less than 10% of the total substrate hydrolysis is used in the calculations. The ratio of the velocity (rate of the change in absorbance as a function of time) for a sample containing no inhibitor is divided by the velocity of a sample containing inhibitor, and is plotted as a function of inhibitor concentration. The inverse of the slope is the concentration of inhibitor which produces a 50% decrease in activity of the enzyme. This concentration is referred to as the IC50.
Plasmin activity was assessed as the ability to hydrolyze the substrate Tos-Gly-Pro-Lys-pNa, and was obtained from Sigma. Substrate solutions were prepared at a concentration of 22 μM (22 μM<<Km =240 μM) in assay buffer. Final DMSO concentration was 0.3%. Purified human plasmin was obtained from Enzyme Research Laboratories Inc, and was diluted into assay buffer to a concentration of 1.2 μM. Final reagent concentrations were: [plasmin]=15 nM, […], [inhibitor]=60 to 0.06 μM.

human α-thrombin = human α-thrombin (Homo sapiens, UniProt P00734); experiment: In vitro inhibition of purified thrombin (hydrolysis of Bz-Phe-Val-Arg-pNa); conditions: for IC50: purified human α-thrombin 36 nM, pH 7.5, 37° C.; for inhibition at 60 µM: at 60 μM inhibitor
Protocol: as §1, §2, §3
Thrombin activity was assessed as the ability to hydrolyze the substrate N-benzoyl-Phe-Val-Arg-p-nitroanilide (Bz-Phe-Val-Arg-pNa), and was obtained from Sigma Chemical Company (St. Louis, Mo.). Substrate solutions were prepared at a concentration of 60 μM (60 μM<<Km =1.2 mM) in assay buffer. Final DMSO concentration was 0.3%. […] Final reagent concentrations were: [thrombin]=36 nM, [Bz-Phe-Val-Arg-pNa]=[…], [inhibitor]=60 to 0.06 μM.

Factor Xa = molecular target: T1, Factor Xa (Homo sapiens, UniProt P00742); experiment: In vitro inhibition of purified factor Xa (hydrolysis of Bz-Ile-Glu-Gly-Arg-pNa); conditions: purified enzyme, 10 nM factor Xa, 26 μM substrate, pH 7.5, 37° C.
T1 construct: purchased Enzyme Research Laboratories, Inc
T1 sequence (P00742 235-488 limits assumed): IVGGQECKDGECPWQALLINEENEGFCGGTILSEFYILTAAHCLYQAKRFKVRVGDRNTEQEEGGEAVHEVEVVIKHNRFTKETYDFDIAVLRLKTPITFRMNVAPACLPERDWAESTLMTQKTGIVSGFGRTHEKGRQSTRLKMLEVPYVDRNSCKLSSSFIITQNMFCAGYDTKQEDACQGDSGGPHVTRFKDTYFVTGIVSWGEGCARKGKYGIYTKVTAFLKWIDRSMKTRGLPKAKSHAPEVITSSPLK
T1 sequence (P00742 41-179 partner limits assumed): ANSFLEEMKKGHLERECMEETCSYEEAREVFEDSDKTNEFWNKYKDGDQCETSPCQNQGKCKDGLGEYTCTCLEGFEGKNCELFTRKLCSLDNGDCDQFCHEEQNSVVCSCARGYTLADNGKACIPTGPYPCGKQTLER
Protocol: as §1, §2, §3
Factor Xa activity was assessed as the ability to hydrolyze the substrate Bz-Ile-Glu-Gly-Arg-pNa, and was obtained from Sigma. Substrate solutions were prepared at a concentration of 26 μM (26 μM<<Km =1.3 mM) in assay buffer. Final DMSO concentration was 0.3%. Activated factor Xa was obtained from Enzyme Research Laboratories, Inc., and was diluted into assay buffer to a concentration of 1.2 μM. Final reagent concentrations were: [Factor Xa]=10 nM, [Bz-Ile-Glu-Gly-Arg-pNa]=26 μM, [inhibitor]=60to 0.06 μM.

[1] = purified human plasmin 15 nM, pH 7.5, 37° C., read-out: Plasmin Inhibition (IC50)

Row | Structure (SMILES) | inhibition at 60 µM (human plasmin) [%] | IC50 (human α-thrombin) [µM] | IC50 (Factor Xa) [µM] | IC50 (human plasmin; [1]) [µM] | inhibition at 60 µM (human α-thrombin) [%] | IC50 (human plasmin) [µM]
1 | CN(C)c1ccc(CNC(=O)c2cccc(NS(=O)(=O)c3ccc4ccccc4c3)c2)cc1 [Compound 16] | 0 | 52.8 | 3.2 |  |  | 
2 | CN(C)c1ccc(CNC(=O)c2cccc(NS(=O)(=O)c3cccc(N)c3)c2)cc1 [Compound 31, 3-[(3'-Aminophenylsulfonyl)amino]-N-[4'-[(N', N'-dimethylamino)phenyl]methyl]benzamide] |  |  | 16.5 | 15.2 | 0 | 
3 | O=C(NCC(O)c1cccc(O)c1)c1cccc(NS(=O)(=O)c2ccc3ccccc3c2)c1 (stereo not drawn) [Compound 14, 3-[(2-Naphthalenylsulfonyl)amino]-N-[2-hydroxy-2-(3'-hydroxyphenyl)ethyl]benzamide] |  | 87 | 11.4 |  |  | 86.1
4 | NCCCCCNC(=O)c1cccc(NS(=O)(=O)c2ccc3ccccc3c2)c1 [Compound 32, 3-[(2-Naphthalenylsulfonyl)amino]-N-(5-aminopentyl)benzamide] | 0 |  | 7.6 |  | 0 | 
5 | O=C(NCCc1ccccn1)c1cccc(NS(=O)(=O)c2ccc3ccccc3c2)c1 [Compound 27] | 0 | 294 | 2 |  |  | 
6 | COc1cc(CNC(=O)c2cccc(NS(=O)(=O)c3ccccc3)c2)ccc1O [Compound 20, 3-[(Phenylsulfonyl)amino]-N-[(4-hydroxy-3-methoxyphenyl)methyl]benzamide] |  |  | 19.2 | 5.8 | 0 | 
7 | COc1cc(C(O)CNC(=O)c2cccc(NS(=O)(=O)c3ccccc3)c2)ccc1O (stereo not drawn) [Compound 22, 3-[(Phenylsulfonyl)amino]-N-[2-hydroxy-2-(4'-hydroxy-3'-methoxyphenyl)ethyl]benzamide] | 0 | 38.3 | 20.8 |  |  | 
